# In patent US20230218624A1 (Urovant Sciences GmbH, priority 2017, published 2023):
# “And” between values parts separate entries of the source, which are not always exact repeats. Equal entries are not always repeated. Marks after values point to notes of the source that are not given here.
# Columns and labels:
# patients with OAB = assay: Phase 2b cardiovascular safety: orthostatic AEs, HR and BP changes; assay type: in vivo, human
# From the text: None led to discontinuation. The overall incidence of orthostatic symptoms was low.
# Small differences in the percent of subjects exceeding categorical heart rate and blood pressure thresholds for vibegron were similar to those in the tolterodine arm.
# [1] = human, in vivo
# [2] = PK in patients with renal impairment; settings: for AUC0-inf, geometric least squares mean / Apparent terminal t1/2, geometric mean (% geometric CV) / CL/F, geometric least squares mean / CLR, geometric mean (% geometric CV) / Cmax, geometric least squares mean / Fe[urine]48 hr, geometric mean (% geometric CV) / Tmax (median): single dose 100 mg
# From the text: The relationship between clearance and renal function was modeled using linear regression.
# [3] = vibegron 50 mg, 3 consecutive post-baseline visits
# [4] = vibegron 100 mg, 3 consecutive post-baseline visits
# [5] = healthy matched control subjects
compound,measurement,setting,value
"O=C(Nc1ccc(C[C@@H]2CC[C@H]([C@H](O)c3ccccc3)N2)cc1)[C@@H]1CCc2nccc(=O)n21 [Vibegron, (6S)—N-[4-[[(2S,5R)-5-[(R)-hydroxy(phenyl)methyl]pyrrolidin-2-yl]methyl]phenyl]-4-oxo-7,8-dihydro-6H-pyrrolo[1,2-a]pyrimidine-6-carboxamide]","SBP change from baseline, mean (week 1)",patients with OAB; vibegron 50 mg,−0.79 mm Hg
same,"SBP change from baseline, mean maximum (week 1 to 8)",patients with OAB; vibegron 50 mg,7.01 mm Hg
same,subjects with orthostatic related AEs,patients with OAB; vibegron 50 mg+tolterodine ER/vibegron 50 mg treatment group,0.8%
same,"DBP change from baseline ≥5 mm Hg, subjects",patients with OAB; [3],(7.6) %
same,"DBP change from baseline ≥10 bpm, subjects",patients with OAB; [3],(3.5) %
same,"DBP change from baseline ≥15 bpm, subjects",patients with OAB; [3],(0.7) %
same,"HR change from baseline ≥5 bpm, subjects",patients with OAB; [3],(8.3) %
same,"HR change from baseline ≥10 bpm, subjects",patients with OAB; [3],(2.8) %
same,"HR change from baseline ≥15 bpm, subjects",patients with OAB; [3],(0.7) %
same,"SBP change from baseline ≥5 mm Hg, subjects",patients with OAB; [3],(16.7) %
same,"SBP change from baseline ≥10 bpm, subjects",patients with OAB; [3],(9.7) %
same,"SBP change from baseline ≥15 bpm, subjects",patients with OAB; [3],(2.1) %
same,"DBP change from baseline, mean (week 1)",patients with OAB; vibegron 100 mg,−0.69 mm Hg
same,"DBP change from baseline, mean maximum (week 1 to 8)",patients with OAB; vibegron 100 mg,4.80 mm Hg
same,"HR change from baseline, mean (week 1)",patients with OAB; vibegron 100 mg,0.35 bpm
same,"HR change from baseline, mean maximum (week 1 to 8)",patients with OAB; vibegron 100 mg,6.12 bpm
same,"SBP change from baseline, mean (week 1)",patients with OAB; vibegron 100 mg,−0.77 mm Hg
same,"SBP change from baseline, mean maximum (week 1 to 8)",patients with OAB; vibegron 100 mg,6.51 mm Hg
same,subjects with orthostatic related AEs,patients with OAB; vibegron 100 mg group,1.1%
same,"DBP change from baseline ≥5 mm Hg, subjects",patients with OAB; [4],(13.1) %
same,"DBP change from baseline ≥10 bpm, subjects",patients with OAB; [4],(3.4) %
same,"HR change from baseline ≥5 bpm, subjects",patients with OAB; [4],(11.8) %
same,"HR change from baseline ≥10 bpm, subjects",patients with OAB; [4],(3.0) %
same,"HR change from baseline ≥15 bpm, subjects",patients with OAB; [4],(0.4) %
same,"SBP change from baseline ≥5 mm Hg, subjects",patients with OAB; [4],(11.8) %
same,"SBP change from baseline ≥10 bpm, subjects",patients with OAB; [4],(4.2) %
same,"SBP change from baseline ≥15 bpm, subjects",patients with OAB; [4],(1.3) %
same,dose recovered in feces,[1],approximately 59%
same,dose recovered in urine,[1],~20%
same,AUC0-inf higher than healthy matched controls,[2]; mild renal impairment,49%
same,CLR reduced compared to healthy matched controls,[2]; mild renal impairment,39%
same,Cmax higher than healthy matched controls,[2]; mild renal impairment,96%
same,AUC0-inf higher than healthy matched controls,[2]; moderate renal impairment,106%
same,CLR reduced compared to healthy matched controls,[2]; moderate renal impairment,65%
same,Cmax higher than healthy matched controls,[2]; moderate renal impairment,68%
same,AUC0-inf higher than healthy matched controls,[2]; severe renal impairment,83%
same,CLR reduced compared to healthy matched controls,[2]; severe renal impairment,82%
same,Cmax higher than healthy matched controls,[2]; severe renal impairment,42%
same,"AUC0-inf, geometric least squares mean",[2]; [5],1540 ng·h/mL
same,"Apparent terminal t1/2, geometric mean (% geometric CV)",[2]; [5],98.8 (13.9) hr
same,"CL/F, geometric least squares mean",[2]; [5],64.9 L/h
same,"CLR, geometric mean (% geometric CV)",[2]; [5],10.4 (20.2) L/hr
same,"Cmax, geometric least squares mean",[2]; [5],107 ng/mL
same,"Fe[urine]48 hr, geometric mean (% geometric CV)",[2]; [5],7.9% and 7.9 (43.0) %
same,"Apparent terminal t1/2, geometric mean (% geometric CV)",[2]; mild renal impairment,96.2 (11.5) hr
same,"CL/F, geometric least squares mean",[2]; mild renal impairment,43.6 L/h
same,"CLR, geometric mean (% geometric CV)",[2]; mild renal impairment,6.3 (31.1)^c L/hr
same,"Cmax, geometric least squares mean",[2]; mild renal impairment,210 ng/mL
same,"Fe[urine]48 hr, geometric mean (% geometric CV)",[2]; mild renal impairment,8.5% and 8.5 (43.9)^c %
same,"AUC0-inf, geometric least squares mean",[2]; moderate renal impairment,3170 ng·h/mL
same,"Apparent terminal t1/2, geometric mean (% geometric CV)",[2]; moderate renal impairment,108 (21.0) hr
same,"CL/F, geometric least squares mean",[2]; moderate renal impairment,31.5 L/h
same,"CLR, geometric mean (% geometric CV)",[2]; moderate renal impairment,3.6 (34.5) L/hr
same,"Fe[urine]48 hr, geometric mean (% geometric CV)",[2]; moderate renal impairment,5.5% and 5.5 (53.2) %
same,Tmax (median),[2]; moderate renal impairment,78 min
same,"AUC0-inf, geometric least squares mean",[2]; severe renal impairment,2820 ng·h/mL
same,"Apparent terminal t1/2, geometric mean (% geometric CV)",[2]; severe renal impairment,131 (10.0) hr
same,"CL/F, geometric least squares mean",[2]; severe renal impairment,35.5 L/h
same,"CLR, geometric mean (% geometric CV)",[2]; severe renal impairment,1.9 (30.9) L/hr
same,"Cmax, geometric least squares mean",[2]; severe renal impairment,152 ng/mL
same,"Fe[urine]48 hr, geometric mean (% geometric CV)",[2]; severe renal impairment,2.1% and 2.1 (57.6) %
same,Tmax (median),[2]; severe renal impairment,30 min
same,CL/F increase per one mL/min/1.73 m^2 increase in eGFR,[2]; slope of linear regression,~0.8%
